In US7943551B2, “3-cyclopropyl-4-(3-thiobenzoyl) pyrazoles and their use as herbicides” (Bayer Cropscience AG, priority 2007, dated 2011):

Columns and labels:
Format in all cases: in vivo
[1] = system: Alopecurus myosuroides; test: Post-emergence herbicidal action; conditions: 80 g of a.i./ha
Method: (§1) Seeds of mono- and dicotyledonous harmful plants are placed in sandy loam in cardboard pots, covered with soil and grown in the greenhouse under good growth conditions. Two to three weeks after sowing, the test plants are treated at the three-leaf stage. The compounds according to the invention, which are formulated as wettable powders or as emulsion concentrates, are sprayed at an application rate of 600 to 800 l of water/ha (converted) in a dosage of 80 grams per hectare onto the surface of the green plant parts. The visual scoring of the damage to the harmful plants is carried out 3-4 weeks after the treatment. Here, the compounds of Nos. 1-39, 1-40, 1-1382 and 1-2091 show an activity of at least 90% against Echinochloa crus galli. The compounds of Nos. 1-3, 1-44 and 1-2091 shown an activity of at least 90% against Abutilon theophrasti. The compounds of Nos. 1-39, 1-40 and 1-1382 show an activity of at least 90% against Veronica persica. The compounds of Nos. 1-3, 1-38, 1-39, 1-1406 and 1-1407 show an activity of at least 90% against Stellaria media.
(§2) The comparative tests of Tables 1 to 24 below show the superiority of the compounds according to the invention over the compounds known from the prior art.
(§3) • ABUTH Abutilon theophrasti ALOMY Alopecurus myosuroides • AMARE Amaranthus retroflexus AVEFA Avena fatua • CHEAL Chenopodium album ECHCG Echinochloa crus galli • GALAP Galium aparine LOLMU Lolium multiflorum • MATIN Matricaria inodora PHBPU Pharbitis purpureum • POLCO Fallopia convolvulus STEME Stellaria media • VERPE Veronica persica VIOTR Viola tricolor • XANST Xanthium strumarium Crop Plants • GLXMA Glycine max (soybeans) TRZAS Triticum aestivum (wheat) • ZEAMX Zea mays (corn)

[2] = system: Avena fatua; test: Post-emergence herbicidal action; conditions: 80 g of a.i./ha
Method: as §1, §2, §3

[3] = system: Echinochloa crus galli; test: Post-emergence herbicidal action; conditions: 80 g of a.i./ha, visual scoring 3-4 weeks after treatment, read-out: Herbicidal activity in % against ECHCG
Method: as §1, §2, §3

[4] = system: Lolium multiflorum; test: Post-emergence herbicidal action; conditions: 80 g of a.i./ha
Method: as §1, §2, §3

[5] = system: Abutilon theophrasti; test: Post-emergence herbicidal action; conditions: Abutilon theophrasti, 80 g of a.i./ha, visual scoring 3-4 weeks after treatment, read-out: Herbicidal activity in % against ABUTH
Method: as §1, with “The compounds according to the invention, which are formulated as wettable powders or as emulsion concentrates, are sprayed at an application rate of 600 to 800 l of water/ha (converted) in a dosage of 80 grams per hectare onto the surface of the green plant parts.” left out
as §2, §3

[6] = system: Chenopodium album; test: Pre-emergence herbicidal action; conditions: 320 g of a.i./ha
From the text: (§4) Seeds or rhizome pieces of mono- and dicotyledonous harmful plants are placed in sandy loam in pots of a diameter of 9 to 13 cm and covered with soil. The herbicides, formulated as emulsifiable concentrates or dusts, are applied to the surface of the covering soil in the form of aqueous dispersions or suspensions or emulsions at an application rate of 300 to 800 l of water/ha (converted), at a dosage of 320 grams per hectare. For further cultivation of the plants, the pots are then kept in a greenhouse under optimum conditions. The visual scoring of the damage to the harmful plants is carried out 3-4 weeks after the treatment. Here, the compounds of Nos. 1-3, 1-15, 1-44 and 1-1407 show an activity of at least 90% against Echinochloa crus galli. The compounds of Nos. 1-15, 1-45, 1-1407 and 1-1419 show an activity of at least 90% against Abutilon theophrasti. The compounds of Nos. 1-3, 1-45, 1-1406 and 1-1418 show an activity of at least 90% against Amaranthus retroflexus. The compounds of Nos. 1-44, 1-1406, 1-1407 and 1-1419 show an activity of at least 90% against Stellaria media.
as §2, §3

[7] = system: Galium aparine; test: Pre-emergence herbicidal action; conditions: 320 g of a.i./ha
From the text: as §4, §2, §3

[8] = system: Glycine max (soybeans); test: Pre-emergence damage of crop plants; conditions: 320 g of a.i./ha, crop plant soybeans
From the text: as §4, §2, §3

[9] = system: Triticum aestivum (wheat); test: Pre-emergence damage of crop plants; conditions: 320 g of a.i./ha, crop plant wheat
From the text: as §4, §2, §3

[10] = system: Veronica persica; test: Post-emergence herbicidal action; conditions: 20 g of a.i./ha, read-out: Herbicidal activity in % against VERPE
Method: as §1, §2, §3

[11] = system: Viola tricolor; test: Post-emergence herbicidal action; conditions: 20 g of a.i./ha, read-out: Herbicidal activity in % against VIOTR
Method: as §1, §2, §3

[12] = system: Galium aparine; test: Post-emergence herbicidal action; conditions: 20 g of a.i./ha
Method: as §1, with “The compounds according to the invention, which are formulated as wettable powders or as emulsion concentrates, are sprayed at an application rate of 600 to 800 l of water/ha (converted) in a dosage of 80 grams per hectare onto the surface of the green plant parts.” left out
as §2, §3

[13] = system: Triticum aestivum (wheat); test: Post-emergence damage of crop plants; conditions: 20 g of a.i./ha, crop plant wheat
Method: as §1, with “The compounds according to the invention, which are formulated as wettable powders or as emulsion concentrates, are sprayed at an application rate of 600 to 800 l of water/ha (converted) in a dosage of 80 grams per hectare onto the surface of the green plant parts.” left out
as §2, §3

[14] = system: Zea mays (corn); test: Post-emergence damage of crop plants; conditions: 20 g of a.i./ha, crop plant corn
Method: as §1, with “The compounds according to the invention, which are formulated as wettable powders or as emulsion concentrates, are sprayed at an application rate of 600 to 800 l of water/ha (converted) in a dosage of 80 grams per hectare onto the surface of the green plant parts.” left out
as §2, §3

Structure (SMILES)	Herbicidal activity in % against ALOMY [1]	Herbicidal activity in % against AVEFA [2]	pest or weed control at 80 g/ha [3]	Herbicidal activity in % against LOLMU [4]	pest or weed control at 80 g/ha [5]	Herbicidal activity in % CHEAL [6]	Herbicidal activity in % GALAP [7]	Damage to GLXMA [8]	Damage to TRZAS [9]	pest or weed control at 20 g/ha [10]	pest or weed control at 20 g/ha [11]	Herbicidal activity in % against GALAP [12]	Damage to TRZAS [13]	Damage to ZEAMX [14]
Cn1nc(C2CC2)c(C(=O)c2ccc(Cl)c(S(=O)(=O)CC3CC3)c2Cl)c1O [drawing 55]	70%	50%	90%	60%	70%									
CCS(=O)(=O)c1c(S(C)(=O)=O)ccc(C(=O)c2c(C3CC3)nn(C)c2O)c1C [drawing 38, reference compound]						90%	90%	50	50					
Cc1c(C(=O)c2c(C3CC3)nn(C)c2O)ccc(S(C)(=O)=O)c1S(=O)(=O)CC1CC1 [drawing 37]						100%	100%	0	0					
Cn1nc(C2CC2)c(C(=O)c2ccc(Cl)c(S(C)(=O)=O)c2Cl)c1O [drawing 56, reference compound]	20%	20%	30%	20%	60%									
COCCS(=O)(=O)c1c(S(C)(=O)=O)ccc(C(=O)c2c(C3CC3)nn(C)c2O)c1C [drawing 35]										90%	70%	50%	0	0
CCS(=O)(=O)c1c(S(C)(=O)=O)ccc(C(=O)c2c(C3CC3)nn(C)c2O)c1C [drawing 36, reference compound]										20%	20%	20%	80	10
